{"source": "paper PMC7811125", "about": "“Red-shifted click beetle luciferase mutant expands the multicolor bioluminescent palette for deep tissue imaging” (iScience, 2020)", "biological_target": "T1, Akaluc (Photinus pyralis, UniProt P08659)", "T1 construct": "Akaluc, multiply mutated firefly luciferase; stably expressed in HEK cells", "T1 sequence (P08659 whole entry)": "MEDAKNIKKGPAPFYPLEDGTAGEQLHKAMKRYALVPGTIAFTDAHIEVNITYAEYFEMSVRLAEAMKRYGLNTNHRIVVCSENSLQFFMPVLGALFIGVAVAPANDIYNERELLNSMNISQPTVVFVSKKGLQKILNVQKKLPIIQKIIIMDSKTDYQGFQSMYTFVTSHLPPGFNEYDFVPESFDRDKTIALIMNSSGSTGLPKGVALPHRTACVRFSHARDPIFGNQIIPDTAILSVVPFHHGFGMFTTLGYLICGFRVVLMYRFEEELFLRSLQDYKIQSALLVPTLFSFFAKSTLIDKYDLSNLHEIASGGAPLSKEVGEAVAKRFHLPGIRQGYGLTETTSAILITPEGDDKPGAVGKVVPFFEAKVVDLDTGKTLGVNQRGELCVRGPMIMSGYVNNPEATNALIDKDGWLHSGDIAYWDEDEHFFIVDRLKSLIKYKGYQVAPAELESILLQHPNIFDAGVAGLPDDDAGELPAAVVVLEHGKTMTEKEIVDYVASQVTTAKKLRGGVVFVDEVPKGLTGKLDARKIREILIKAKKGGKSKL", "experiment": "live-cell bioluminescence imaging", "assay_type": "cell-based", "settings": "HEK cells expressing Akaluc; 0.1 mM substrate; 660 nm filter", "note": "Counter-ions that a name gives are not always drawn."}
{"smiles": "CN(C)c1ccc(/C=C/C=C/C2=N[C@@H](C(=O)O)CS2)cc1", "note": "[AkaLumine-HCl]", "values": [{"measurement": "live-cell bioluminescence imaging", "result": "Akaluc yielded the brightest photon emission with AkaLumine-HCl"}]}
